16 compounds from ChEMBL document CHEMBL3045041, “Synthesis of novel aryl(4-substituted pyridin-3-yl)methyl carbamates and their herbicidal activity” (J Pestic Sci, 2012) can be followed below.

Data set [1] deals with Oryza sativa. Nature of the data set: Phytotoxicity against Oryza sativa cv. Kinuhikari (rice) planted at 3 cm depth measured after 20 to 25 days. Type of data set: organism-based. To be noted: in vivo.
In data set [2] the test system is Schoenoplectiella juncoides. Nature of the data set: Herbicidal activity against Schoenoplectiella juncoides under greenhouse condition compound treated at 0.5 leaf stage measured after 14 to 20 days. The data set is classed as functional.
For data set [3], the system named is Echinochloa oryzicola. Nature of the data set: Herbicidal activity against Echinochloa oryzicola under greenhouse condition compound treated at 2.5 leaf stage measured after 14 to 20 days. The data set is classed as functional.
In data set [4] the test system is Echinochloa oryzicola. Nature of the data set: Herbicidal activity against Echinochloa oryzicola under greenhouse condition compound treated at emergence stage measured after 14 to 20 days. The data set is classed as functional.
In data set [5] the test system is Oryza sativa. In words: Phytotoxicity against Oryza sativa cv. Kinuhikari (rice) planted at 3 cm depth measured after 26 days. The data set is classed as organism-based. To be noted: in vivo, 624 h.
The test system of data set [6] is Schoenoplectiella juncoides. Nature of the data set: Herbicidal activity against Schoenoplectiella juncoides compound treated at 0.5-leaf stage measured after 26 days by outdoor concrete pot test. Type of data set: functional.
Data set [7] deals with Echinochloa oryzicola. In words: Herbicidal activity against Echinochloa oryzicola compound treated at emergence stage measured after 26 days by outdoor concrete pot test. Type of data set: functional.
Data set [8] has as its system Elatine triandra. In words: Herbicidal activity against Elatine triandra compound treated at 1 to 2.2-leaf stage measured after 26 days by outdoor concrete pot test. The data set is classed as functional.
Data set [9] relates to Rotala indica. In words: Herbicidal activity against Rotala indica compound treated at 1 to 2.2-leaf stage measured after 26 days by outdoor concrete pot test. The data set is classed as functional.
The test system of data set [10] is Lindernia procumbens. Nature of the data set: Herbicidal activity against Lindernia procumbens compound treated at 1 to 2.2-leaf stage measured after 26 days by outdoor concrete pot test. Type of data set: functional.
In data set [11] the test system is Pontederia vaginalis. Nature of the data set: Herbicidal activity against Monochoria vaginalis compound treated at 1.5-leaf stage measured after 26 days by outdoor concrete pot test. Type of data set: functional.
Data set [12] has as its system Echinochloa oryzicola. In words: Herbicidal activity against Echinochloa oryzicola compound treated at 2.5-leaf stage measured after 26 days by outdoor concrete pot test. Type of data set: functional.
Data set [13] concerns Rotala indica. In words: Herbicidal activity against Rotala indica at 300 g a.i/ha treated at 2.3-leaf stage measured after 26 days by outdoor concrete pot test. The data set is classed as functional.
Data set [14] concerns Lindernia procumbens. In words: Herbicidal activity against Lindernia procumbens at 300 g a.i/ha treated at 2.3-leaf stage measured after 26 days by outdoor concrete pot test. Type of data set: functional.
For data set [15], the system named is Pontederia vaginalis. Nature of the data set: Herbicidal activity against Monochoria vaginalis at 300 g a.i/ha treated at 2.3-leaf stage measured after 26 days by outdoor concrete pot test. The data set is classed as functional.
In data set [16] the test system is Echinochloa oryzicola. In words: Herbicidal activity against Echinochloa oryzicola at 300 g a.i/ha treated at 2.3-leaf stage measured after 26 days by outdoor concrete pot test. Type of data set: functional.
The subject of data set [17] is Elatine triandra. Nature of the data set: Herbicidal activity against Elatine triandra at 300 g a.i/ha treated at 2.3-leaf stage measured after 26 days by outdoor concrete pot test. Type of data set: functional.
The test system of data set [18] is Schoenoplectiella juncoides. Nature of the data set: Herbicidal activity against Schoenoplectiella juncoides at 300 g a.i/ha treated at 2.3-leaf stage measured after 26 days by outdoor concrete pot test. Type of data set: functional.
For data set [19], the system named is Rotala indica. In words: Herbicidal activity against Rotala indica at 300 g a.i/ha treated at 1.6-leaf stage measured after 26 days by outdoor concrete pot test. Type of data set: functional.
Data set [20] has as its system Elatine triandra. In words: Herbicidal activity against Elatine triandra at 300 g a.i/ha treated at 1.6-leaf stage measured after 26 days by outdoor concrete pot test. The data set is classed as functional.
The test system of data set [21] is Lindernia procumbens. Nature of the data set: Herbicidal activity against Lindernia procumbens at 300 g a.i/ha treated at 1.6-leaf stage measured after 26 days by outdoor concrete pot test. Type of data set: functional.
In data set [22] the test system is Schoenoplectiella juncoides. In words: Herbicidal activity against Schoenoplectiella juncoides at 300 g a.i/ha treated at 1.6-leaf stage measured after 26 days by outdoor concrete pot test. Type of data set: functional.
For data set [23], the system named is Pontederia vaginalis. In words: Herbicidal activity against Monochoria vaginalis at 300 g a.i/ha treated at 1.6-leaf stage measured after 26 days by outdoor concrete pot test. Type of data set: functional.
The test system of data set [24] is Echinochloa oryzicola. In words: Herbicidal activity against Echinochloa oryzicola at 300 g a.i/ha treated at 1.6-leaf stage measured after 26 days by outdoor concrete pot test. Type of data set: functional.
Data set [25] deals with Oryza sativa. Nature of the data set: Phytotoxicity against Oryza sativa cv. Kinuhikari (rice) at 300 g a.i/ha treated at 2.3-leaf stage measured after 26 days by outdoor concrete pot test. The data set is classed as organism-based. The note with it: in vivo, other, 624 h.

Compound `CN(C)C(=O)OC(c1cnccc1C#N)c1cccc2ccccc12` (stereo not given) returned an ED20 with Oryza sativa [1] greater than 1000 gAi/ha. In addition, the values for the ED80 (in data set [2]; with Echinochloa oryzicola [3]; in the data set on Echinochloa oryzicola [4]) were 250 gAi/ha, 250 gAi/ha and 63 gAi/ha, respectively.

The compound `COc1ccncc1C(OC(=O)N(C)C)c1cccc2ccccc12` (stereo not given) yielded an ED20 in the data set with Oryza sativa [1] greater than 2000 gAi/ha. The ED80 (in data set [2]; in the data set on Echinochloa oryzicola [3]; in the data set on Echinochloa oryzicola [4]) was greater than 1000 gAi/ha throughout.

Regarding `Cc1ccncc1C(OC(=O)N(C)C)c1cccc2ccccc12` (stereo not given), in the data set on Oryza sativa [1], the ED20 came out at 2000 gAi/ha. Moreover, the ED80 in data set [2] is greater than 1000 gAi/ha; in the data set with Echinochloa oryzicola [4], 500 gAi/ha.

Consider `CN(C)C(=O)OC(c1cnccc1Cl)c1cccc2ccccc12` (stereo not given), for which the ED20 in the data set with Oryza sativa [1] came to 1000 gAi/ha. Moreover, the figures for the ED80 (in [2]; in the data set on Echinochloa oryzicola [3]; with Echinochloa oryzicola [4]) were 63 gAi/ha, greater than 500 gAi/ha and 63 gAi/ha, respectively.

Compound `CN(C)C(=O)OC(c1cnccc1Br)c1cccc2ccccc12` (stereo not given) had an ED20 in the data set with Oryza sativa [1] of 2000 gAi/ha. Moreover, the ED80 was 250 gAi/ha in [2], 250 gAi/ha in the data set with Echinochloa oryzicola [3] and 31 gAi/ha in the data set with Echinochloa oryzicola [4].

As to `O=C(OC(c1cnccc1C(F)(F)F)c1cccc2ccccc12)n1ccnc1` (stereo not given), the ED80 in data set [2] was greater than 1000 gAi/ha; in the data set on Echinochloa oryzicola [4], greater than 500 gAi/ha.

In turn, `CCN(CC)C(=O)OC(c1cnccc1C(F)(F)F)c1cccc2ccccc12` (stereo not given) gave an ED20 in the data set on Oryza sativa [1] greater than 2000 gAi/ha. Moreover, the figures for the ED80 (in data set [2]; with Echinochloa oryzicola [3]; in the data set on Echinochloa oryzicola [4]) were 1000 gAi/ha, 250 gAi/ha and 31 gAi/ha, respectively.

Take `CNC(=O)OC(c1cnccc1C(F)(F)F)c1cccc2ccccc12` (stereo not given): the ED20 in the data set with Oryza sativa [1] was determined as 2000 gAi/ha. The ED80 in [2] is 500 gAi/ha; in the data set with Echinochloa oryzicola [3] it was 250 gAi/ha; in the data set on Echinochloa oryzicola [4], 63 gAi/ha.

Compound `CN(C)C(=O)OC(c1cnccc1C(F)(F)F)c1ccnc2ccccc12` (stereo not given) registered an ED20 in the data set on Oryza sativa [1] of 2000 gAi/ha. Besides, the ED80 came out at 500 gAi/ha in data set [2] and 125 gAi/ha with Echinochloa oryzicola [4].

`CN(C)C(=O)OC(c1cnccc1C(F)(F)F)c1ccc2c3c(cccc13)CC2` (stereo not given) displayed an ED20 in the data set with Oryza sativa [1] greater than 2000 gAi/ha. Besides, the ED80 in data set [2] is listed as greater than 1000 gAi/ha; in the data set on Echinochloa oryzicola [3], greater than 500 gAi/ha; in the data set with Echinochloa oryzicola [4] it was 500 gAi/ha.

`CN(C)C(=O)OC(c1cnccc1C(F)(F)F)c1c(Cl)ccc2c1OCO2` (stereo not given): the ED20 in the data set on Oryza sativa [1] is greater than 2000 gAi/ha. In addition, the ED80 in [2] came out at 500 gAi/ha; in the data set on Echinochloa oryzicola [3] it was 500 gAi/ha; with Echinochloa oryzicola [4], 63 gAi/ha.

`CN(C)C(=O)OC(c1cnccc1C(F)(F)F)c1cccc2c1OCO2` (stereo not given) registered an ED20 in the data set with Oryza sativa [1] of 500 gAi/ha. Besides, the ED80 is 250 gAi/ha in data set [2] and 63 gAi/ha in the data set on Echinochloa oryzicola [4].

`CN(C)C(=O)OC(c1cnccc1C(F)(F)F)c1cnccc1C(F)(F)F` gave an ED20 with Oryza sativa [1] of less than 250 gAi/ha. For the same compound, the ED80 (in data set [2]; in the data set with Echinochloa oryzicola [4]) was 63 gAi/ha in each case.

On to `CN(C)C(=O)OC(c1cnccc1C(F)(F)F)c1cccc2ccccc12` (single isomer, unassigned; (+)), for which the ED20 with Oryza sativa [5] was 1000 gAi/ha. The results for the ED80 (in data set [6]; in the data set on Echinochloa oryzicola [7]) were greater than 500 gAi/ha and 125 gAi/ha, respectively.

For the compound `CN(C)C(=O)OC(c1cnccc1C(F)(F)F)c1cccc2ccccc12` (single isomer, unassigned; (-)), the ED80 in the data set with Elatine triandra [8] is less than 63 gAi/ha; in the data set on Rotala indica [9], less than 63 gAi/ha; with Lindernia procumbens [10], less than 63 gAi/ha; in the data set on Pontederia vaginalis [11], less than 100 gAi/ha; with Echinochloa oryzicola [12], less than 63 gAi/ha; in data set [6] it was 125 gAi/ha. In addition, in the data set on Echinochloa oryzicola [7], the ED80 is given as less than 31 gAi/ha. In the data set on Oryza sativa [5], this compound gave an ED20 of 500 gAi/ha.

Consider `CCN(CC)C(=O)n1cnc(S(=O)(=O)c2c(C)cc(C)cc2C)n1` [CAFENSTROLE], for which the Efficacy in the data set on Rotala indica [13] was 99%; in the data set with Lindernia procumbens [14] it was 99%; in the data set with Pontederia vaginalis [15] it was 0%; with Echinochloa oryzicola [16], 95%; in the data set on Elatine triandra [17], 99%; in data set [18], 0%. For the same compound, the Efficacy came out at 100% with Rotala indica [19]; 100% in the data set on Elatine triandra [20]; 100% with Lindernia procumbens [21]; 0% in data set [22]; 50% in the data set with Pontederia vaginalis [23]; 100% in the data set on Echinochloa oryzicola [24]. Besides, the Efficacy in the data set on Oryza sativa [25] is 0%.
